pIC50: −log10 of the molar value. Like-named read-outs stand apart in the source and are kept apart here.
How the values were obtained:
HLA-B*0702 = HLA-B*0702 (Homo sapiens, UniProt P01889); assay: Purified HLA class I peptide binding assay, B*0702
HLA-B*3501 = HLA-B*3501 (Homo sapiens, UniProt P01889, A329T/A93T/A95T/C349S/D201E/D98Y/E176V/E187L/E204Q/E69T/I218V/K202T/L119I/Q94N/R155S/R180L/S121R/S35A/S48A/T118I/V127L/V306I/V36M/Y140S/Y91F); assay: Purified HLA class I peptide binding assay, B*3501
HLA-B*5301 = HLA-B*5301 (Homo sapiens, UniProt P01889, A329T/A93T/A95T/C349S/D201E/D98Y/E176V/E187L/E204Q/E69T/G107R/I218V/K202T/L105A/L119I/N104I/Q94N/R106L/R155S/R180L/S101N/S121R/S35A/S48A/T118I/V127L/V306I/V36M/Y140S/Y91F); assay: Purified HLA class I peptide binding assay, B*5301
HLA-B*5401 = HLA-B*5401 (Homo sapiens, UniProt P01889, A329T/C349S/D138N/D201E/E176V/E187T/E204Q/E69G/I76V/K202T/L119W/R155S/R180L/S121T/S35A/S48A/V127L/V306I/V36M/Y140L); assay: Purified HLA class I peptide binding assay, B*5401
HLA-B*5101 (B51) = HLA-B*5101 (B51) (Homo sapiens, UniProt P01889, A329T/A93T/A95T/C349S/D138N/D201E/D98Y/E187L/E204Q/E69T/G107R/I218V/K202T/L105A/L119W/N104I/Q94N/R106L/R155S/R180L/S101N/S121T/S35A/S48A/V306I/V36M/Y195H/Y91F); assay: Purified HLA class I peptide binding assay, B51; settings: binding affinity, HLA-B7 supermotif-bearing peptides
[1] = binding affinity, HLA-B7 supermotif-bearing peptides

SMILES	pIC50 (HLA-B*0702; [1])	pIC50 (HLA-B*3501; [1])	pIC50 (HLA-B*5301; [1])	pIC50 (HLA-B*5401; [1])	pIC50 (HLA-B*5101 (B51); read-out: B*5101 nM)	pIC50 (HLA-B*0702)	pIC50 (HLA-B*3501)	pIC50 (HLA-B*5101 (B51); B*5101 nM)	pIC50 (HLA-B*5301)	pIC50 (HLA-B*5401)
CC[C@H](C)[C@H](NC(=O)[C@@H]1CCCN1C(=O)[C@@H]1CCCN1C(=O)[C@H](Cc1ccc(O)cc1)NC(=O)[C@H](CO)NC(=O)[C@@H](NC(=O)[C@H](Cc1c[nH]cn1)NC(=O)[C@@H]1CCCN1C(=O)[C@@H](N)Cc1ccccc1)[C@@H](C)CC)C(=O)O	8.54	6.44	6.63	8.85	–	–	–	–	–	–
CC[C@H](C)[C@H](NC(=O)[C@H](Cc1c[nH]cn1)NC(=O)[C@@H]1CCCN1C(=O)[C@@H](N)Cc1ccccc1)C(=O)N[C@@H](CO)C(=O)N[C@@H](Cc1ccc(O)cc1)C(=O)N1CCC[C@H]1C(=O)N1CCC[C@H]1C(=O)N[C@@H](CC(C)C)C(=O)O	8.77	–	6.31	8.42	6.75	–	–	–	–	–
CC[C@H](C)[C@H](NC(=O)[C@H](Cc1ccccc1)NC(=O)[C@@H](NC(=O)[C@H](Cc1ccc(O)cc1)NC(=O)[C@H](CC(C)C)NC(=O)[C@H](Cc1c[nH]cn1)NC(=O)CNC(=O)[C@@H](NC(=O)[C@@H]1CCCN1C(=O)[C@@H](N)Cc1ccccc1)[C@@H](C)CC)[C@@H](C)CC)C(=O)O	7.20	6.86	8.07	8.54	8.24	–	–	–	–	–
CC[C@H](C)[C@H](NC(=O)[C@@H](NC(=O)[C@H](Cc1ccc(O)cc1)NC(=O)[C@H](CC(C)C)NC(=O)[C@H](Cc1c[nH]cn1)NC(=O)CNC(=O)[C@@H](NC(=O)[C@@H]1CCCN1C(=O)[C@@H](N)Cc1ccccc1)[C@@H](C)CC)[C@@H](C)CC)C(=O)O	8.47	7.11	–	9.22	8.30	–	–	–	–	–
CC[C@H](C)[C@H](NC(=O)[C@H](Cc1ccc(O)cc1)NC(=O)[C@H](CC(C)C)NC(=O)[C@H](Cc1c[nH]cn1)NC(=O)[C@H](CO)NC(=O)[C@@H](NC(=O)[C@@H]1CCCN1C(=O)[C@@H](N)Cc1ccccc1)[C@@H](C)CC)C(=O)O	–	–	–	–	–	6.67	6.18	7.38	6.45	7.23
CC[C@H](C)[C@H](NC(=O)[C@@H](NC(=O)[C@H](Cc1ccc(O)cc1)NC(=O)[C@H](CC(C)C)NC(=O)[C@H](Cc1c[nH]cn1)NC(=O)[C@H](CO)NC(=O)[C@@H](NC(=O)[C@@H]1CCCN1C(=O)[C@@H](N)Cc1ccccc1)[C@@H](C)CC)[C@@H](C)CC)C(=O)O	8.54	–	8.36	9.22	8.38	–	–	–	–	–
CC[C@H](C)[C@H](NC(=O)[C@H](CC(C)C)NC(=O)[C@@H](NC(=O)[C@H](Cc1ccc(O)cc1)NC(=O)[C@H](CC(C)C)NC(=O)[C@H](Cc1c[nH]cn1)NC(=O)[C@H](CO)NC(=O)[C@@H](NC(=O)[C@@H]1CCCN1C(=O)[C@@H](N)Cc1ccccc1)[C@@H](C)CC)[C@@H](C)CC)C(=O)O	7.01	–	8.31	8.59	7.89	–	–	–	–	–
CC[C@H](C)[C@H](NC(=O)[C@H](CC(C)C)NC(=O)[C@H](CC(C)C)NC(=O)CNC(=O)[C@H](C)NC(=O)[C@H](CCCCN)NC(=O)[C@@H]1CCCN1C(=O)[C@@H](N)Cc1ccccc1)C(=O)O	–	< 5.00	6.11	–	8.09	–	–	–	–	–
CC[C@H](C)[C@H](NC(=O)[C@@H](NC(=O)[C@@H](NC(=O)[C@H](CC(C)C)NC(=O)[C@H](CC(C)C)NC(=O)CNC(=O)[C@H](C)NC(=O)[C@H](CCCCN)NC(=O)[C@@H]1CCCN1C(=O)[C@@H](N)Cc1ccccc1)[C@@H](C)CC)[C@@H](C)CC)C(=O)O	6.69	5.57	6.07	–	7.19	–	–	–	–	–

From US20040053822A1, “Inducing cellular immune responses to mage2/3 using peptide and nucleic acid compositions” (priority 2002, published 2004)
